Changes are numbered by the printed parent chain. Entries after “also recorded” stand apart in the source; their conditions may differ. Read-outs that look alike come from different tables or passages of the source.
How the values were obtained:
[1] = test system: mammalian TRPA1s; details: conserved cysteine-independent; cited from earlier work
[2] = test system: uninjected oocytes; test: Two-electrode voltage clamping on uninjected oocytes; assay type: cell-based, Xenopus laevis; details: 3 mM AITC, 1 mM CA, 0.1 mM NMM
[3] = molecular target: T1, dTRPA1 (Drosophila melanogaster, UniProt Q7Z020); test: Two-electrode voltage clamping on Xenopus laevis oocytes expressing dTRPA1; assay type: cell-based
T1 sequence (Q7Z020 1-1197): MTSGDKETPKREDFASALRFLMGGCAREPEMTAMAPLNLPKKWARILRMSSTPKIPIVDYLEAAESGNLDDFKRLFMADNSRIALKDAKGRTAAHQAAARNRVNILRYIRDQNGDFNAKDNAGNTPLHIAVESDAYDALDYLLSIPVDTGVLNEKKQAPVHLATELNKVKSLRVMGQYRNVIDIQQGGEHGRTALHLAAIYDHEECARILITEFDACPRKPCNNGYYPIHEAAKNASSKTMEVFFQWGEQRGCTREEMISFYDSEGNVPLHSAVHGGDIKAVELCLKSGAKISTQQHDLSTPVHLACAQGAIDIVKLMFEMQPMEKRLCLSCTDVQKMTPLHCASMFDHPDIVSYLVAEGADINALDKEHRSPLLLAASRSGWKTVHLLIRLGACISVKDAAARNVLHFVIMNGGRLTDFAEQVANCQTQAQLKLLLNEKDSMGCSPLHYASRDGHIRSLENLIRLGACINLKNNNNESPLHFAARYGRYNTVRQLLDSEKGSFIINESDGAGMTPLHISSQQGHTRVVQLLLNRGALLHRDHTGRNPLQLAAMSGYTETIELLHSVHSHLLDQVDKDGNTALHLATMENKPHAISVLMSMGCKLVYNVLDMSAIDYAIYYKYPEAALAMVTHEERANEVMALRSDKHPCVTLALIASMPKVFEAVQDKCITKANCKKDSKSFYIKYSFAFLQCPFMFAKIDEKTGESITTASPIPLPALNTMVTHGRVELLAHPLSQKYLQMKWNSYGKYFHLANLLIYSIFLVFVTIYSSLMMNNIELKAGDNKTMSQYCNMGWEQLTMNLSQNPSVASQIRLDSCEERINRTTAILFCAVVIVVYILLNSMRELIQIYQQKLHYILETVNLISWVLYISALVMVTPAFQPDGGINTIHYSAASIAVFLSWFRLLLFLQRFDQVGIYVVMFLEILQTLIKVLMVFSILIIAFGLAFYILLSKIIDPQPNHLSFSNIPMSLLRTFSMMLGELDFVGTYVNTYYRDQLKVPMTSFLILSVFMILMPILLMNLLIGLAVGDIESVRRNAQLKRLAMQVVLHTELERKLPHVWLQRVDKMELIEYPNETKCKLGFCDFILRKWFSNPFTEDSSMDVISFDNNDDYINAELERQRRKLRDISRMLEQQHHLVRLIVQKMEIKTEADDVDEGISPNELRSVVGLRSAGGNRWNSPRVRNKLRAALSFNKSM

[4] = test system: Drosophila flies; test: Proboscis extension response (PER) behavioral assay; assay type: in vivo, Drosophila melanogaster; details: for Effect on PER in dTrpA1 loss-of-function mutants / Effect on PER in painless mutants / Effect on proboscis extension response (PER) / feeding: ingestion permitted; for Acceptance on first offering: first of five tastant offerings; for Effect on PER in painless mutants: painless mutant flies; for Effect on proboscis extension response (PER) / feeding: 350 mM sucrose with 2 mM AITC
[5] = molecular target: T2, dTRPA1-2C (Drosophila melanogaster, UniProt Q7Z020, C650S/C670S); test: Two-electrode voltage clamping on oocytes expressing mutant dTRPA1-2C; assay type: cell-based; details: cysteines 650 and 670 mutated to serines; 0.1, 0.5, 1.0 mM AITC
T2 construct: expressed in transfected cells; host or cells: Xenopus laevis oocytes
T2 sequence (Q7Z020 1-1197 C650S/C670S): T1 sequence (Q7Z020 1-1197) with C650S, C670S
Protocol: Oocyte and larval physiology were performed largely as described in Hamada, et al., Nature 454, 217-220 (2008) and Pulver, et al., J Neurophysiol 101, 3075-3088 (2009), with additional details provided in below. Chemical sensitivities of wild type and mutant (dTRPA1-2C) channels were assessed by normalizing all currents to currents observed at 1 mM AITC.
Agonist-evoked dTRPA1 currents were recorded as previously described in (Hamada, et al., Nature 454, 217-220 (2008)), with the following modifications. Agonists of interest were added to the oocyte perfusion buffer (96 mM NaCl, 1 mM MgCl2, 4 mM KCl, and 5 mM HEPES, pH 7.6). Voltage was initially held at −60 mV, and a 300-ms voltage ramp (−60 mV to 60 mV) per sec was applied to dTRPA1- or AgTRPA1-expressing oocytes during perfusion of agonist-containing buffer. Typical oocyte resting membrane potentials were between −25 and −60 mV. […] EC50s for wild type dTRPA1 channels were obtained at −60 mV, with AITC provided for 60 sec with 30 sec intervals between increasing concentrations.
Substitutions of cysteine/lysine residues in dTrpA1 were made by swapping a region of wild type cDNA sequence including codons of cysteine or lysine with mutated cassettes. […]

[6] = test system: nematodes; details: in vivo; cited from earlier work
[7] = test system: mammalian nociceptors; details: cited from earlier work
[8] = test system: flies; details: in vivo; cited from earlier work
[9] = test system: agTRPA1; details: cited from earlier work
[10] = molecular target: T1, dTRPA1; details: cited from earlier work
[11] = wild type flies, 10 mM NMM or 6 mM CA
[12] = wild-type dTRPA1 in Xenopus oocytes

For 2-aminoethoxydiphenyl borate [2-APB], the “Activity on mammalian TRPA1s” value [1] is listed as “agonists”.
In the case of C=CCN=C=S [AITC, allyl isothiocyanate], the “Response of uninjected oocytes” value [2] is reported as “did not respond”, the “Activation of dTRPA1” value [3] is reported as “activated” and the “Effect on PER in dTrpA1 loss-of-function mutants” value [4] is reported as “no reduction”. For the same molecule, the “Acceptance on first offering” value [4] was “usually accepted”, the “Effect on PER in painless mutants” value [4] was “significantly inhibited” and the “Effect on proboscis extension response (PER) / feeding” value [4, 11] was “dramatically inhibited”. For the same molecule, the “AITC sensitivity of dTRPA1-2C versus wild type” value [5] was “low sensitivity; also recorded: significantly decreased”.
With CCN(CC)C(=O)c1cccc(C)c1 [DEET, N,N-diethyl-m-toluamide] the “Activation of dTRPA1” value [3, 12] was “failed to activate”.
For CCCCN(CCC(=O)OCC)C(C)=O [IR-3535], the “Activation of dTRPA1” value [3, 12] was “failed to activate”.
For CN1C(=O)C=CC1=O [NMM, N-methyl-maleimide], the “Response of uninjected oocytes” value [2] was “did not respond”, the “Effect on PER in dTrpA1 loss-of-function mutants” value [4] was “no reduction” and the “Acceptance on first offering” value [4] was “usually accepted”. For the same molecule, the “Effect on ingestion in previously published ingestion-independent PER assay” value ([4]; ingestion-independent PER assay of Al-Anzi et al.) was “no effect”, the “Effect on PER in painless mutants” value [4] was “significantly inhibited” and the “Change of the compound's effect on PER upon dTRPA1 knockdown” value ([4]; tissue-specific dTRPA1 RNAi with Dll-Gal4, MJ94-Gal4 or Gr66a-Gal4, 10 mM NMM in 350 mM sucrose) was “robustly reduced”. For the same molecule, the “Effect on proboscis extension response (PER) / feeding” value [4, 11] was “robustly inhibited”.
In the case of Cn1c(=O)c2c(ncn2C)n(C)c1=O [caffeine], the “Effect on PER in dTrpA1 loss-of-function mutants” value [4] is reported as “inhibited” and the “Effect on PER when only leg contact with food permitted” value ([4]; wild type flies, tastant contacts only legs, 350 mM sucrose with 100 mM caffeine, 2 mM AITC, 10 mM NMM or 6 mM CA) is reported as “robustly inhibited”.
In the case of COc1cc(CNC(=O)CCCC/C=C/C(C)C)ccc1O [capsaicin], the “Acute response in nematodes” value [6] is listed as “no acute response”, the “Effect on mammalian nociceptors” value [7] is listed as “activates” and the “Acute response in flies” value [8] is listed as “no acute response”.
For CC1(C)[C@H](C(=O)O[C@H](C#N)c2cccc(Oc3ccccc3)c2)[C@@H]1C=C(Br)Br [deltamethrin], the “Activation of dTRPA1” value [3] was “failed to activate”.
For CN1CCCC1c1cccnc1 (centres unmarked) [nicotine], the “Activation of dTRPA1” value [3] is listed as “did not activate”, the “Response of dTRPA1 expressing oocytes” value [3] is listed as “did not respond” and the “Activity on mammalian TRPA1s” value [1] is listed as “agonists”.
In the case of N.N.N.N.N.N.N.N.N.N.N.N.N.N.[Cl-].[Cl-].[Cl-].[Cl-].[Cl-].[Cl-].[O-2].[O-2].[Ru+3].[Ru+3].[Ru+4] [ruthenium red], the “Inhibition of warmth-activated agTRPA1 currents” value [9] is given as “partially inhibits”, the “Inhibition of warmth-activated dTRPA1 currents” value [10] is given as “partially inhibits” and the “Inhibition of agonist-elicited currents” value ([3]; 100 μM ruthenium red applied) is given as “inhibited”.
